Literature values, collected in patent US12697339B2, “Composition and methods of treatment using synergistically-enhanced supplementation” (Xygenyx Inc., priority 2023, dated 2026).
Non-standard residues stand in square brackets, D forms with d. Residues, ends and D or L forms follow the SMILES beside them. Cit = NC(=O)NCCC[C@H](N)C(=O)O

Key:
skin [1] = settings: topical formulations, within four weeks of treatment
[2] = tested on: wide dynamic range neurons in the ventroposterolateral nucleus of the thalamus; settings: believed
skin [3] = settings: topical application, concentrations 0.5-5%
[4] = studies using mice
skin [5] = settings: as penetration enhancer for transdermal drugs
[6] = compared to α-tocopherol with biological activity factor 1.0
[7] = in vivo
[8] = in vivo; remark: listed apart in the source
[9] = even when dietary intake occurs in equal portions

CC[C@H](C)[C@H](NC(=O)[C@H](CC(=O)O)NC(=O)[C@@H](N)CCCCN)C(=O)N[C@@H](CCCNC(N)=O)C(N)=O [Tripeptide-10 citrulline] (H-KDI[Cit]-NH2)
improvement of suppleness (skin [1]): ≤ 54%

CCCCCc1cc(O)c2c(c1)OC(C)(C)C1CCC(C)=CC21 (stereo not drawn) [THC, Δ-9-tetrahydrocannabinol]
power in mediating pain relative to morphine [2]: ten times more powerful than morphine

C=CCCCCCCCCC(=O)N[C@@H](Cc1ccccc1)C(=O)O [Undecylenoyl phenylalanine]
time of treatment to skin lightening effects (skin [3]): ≥ 7 days

CC(CN)C(=O)O [L-BAIBA, L-beta-aminoisobutyric acid]
tolerated dose [4]: 10-100 mg/kg of bodyweight

Cc1c(C)c2c(c(C)c1O)CC[C@@](C)(CCC[C@H](C)CCC[C@H](C)CCCC(C)C)O2 [α-tocopherol]
reduction of risk of coronary disease (dietary supplementation, doses up to 400 IU/day): up to 34% | reduction of risk of developing neurodegenerative diseases such as Alzheimer's Syndrome or dementia (dietary supplementation, doses up to 400 IU/day, controlled trials): ≤ 24% | reduction in the development of age-related cataracts (in combination with 10-20 mg β-carotene and 400-500 mg vitamin C, doses around 400-500 IU): 23%

CC(C)[C@@H]1CC[C@@H](C)C[C@H]1O [Menthol]
factor of increase in drug uptake via the transdermal route (skin [5]): ≥ 10

Cc1cc(O)c(C)c2c1O[C@](C)(CCC[C@H](C)CCC[C@H](C)CCCC(C)C)CC2 [β-tocopherol]
relative biological activity [6]: 0.5

HGH: hormone comprising a peptide chain that is synthesized in the pituitary gland
biological half-life [7]: 10-20 minutes

CC12CCC(CC1)C(C)(C)O2 [Eucalyptol]
factor of increase in drug uptake via the transdermal route (skin [5]): more than 10

CCNC(=O)CC[C@H](N)C(=O)O [Theanine]
dose considered safe and well-tolerated [8]: up to 400 mg per day

Cc1c(O)cc2c(c1C)O[C@](C)(CCC[C@H](C)CCC[C@H](C)CCCC(C)C)CC2 [γ-tocopherol]
relative biological activity [6]: 0.1 | concentration in vivo relative to α-tocopherol [9]: roughly 10%

Cc1cc(O)cc2c1O[C@](C)(CCC[C@H](C)CCC[C@H](C)CCCC(C)C)CC2 [δ-tocopherol]
relative biological activity [6]: 0.03
